The values below come from ChEMBL document CHEMBL3393060, “Inhibitors of c-Jun N-terminal kinases: an update” (J Med Chem, 2015).

A value given as a limit tells only on which side of the number the result lay.

In data set [1] the target is Mast/stem cell growth factor receptor Kit (Homo sapiens, UniProt P10721). Kind of data set: Inhibition of KIT (unknown origin).
Data set [2] addresses MAP kinase-interacting serine/threonine-protein kinase 2 (Homo sapiens, UniProt Q9HBH9). The experiment in a line: Inhibition of MKNK2 (unknown origin) by KINOMEScan assay.
Data set [3] deals with Phosphatidylinositol 4,5-bisphosphate 3-kinase catalytic subunit gamma isoform (Homo sapiens, UniProt P48736). Kind of data set: Inhibition of PI3Kgamma (unknown origin) by KINOMEScan assay.
Data set [4] has as its target T1, Mitogen-activated protein kinase 8 (Homo sapiens, UniProt P45983). The experiment in a line: Inhibition of JNK1 (unknown origin).
Data set [5] addresses T2, Mitogen-activated protein kinase 9 (Homo sapiens, UniProt P45984). The experiment in a line: Inhibition of JNK2 (unknown origin).
The target in data set [6] is Casein kinase I isoform delta (Homo sapiens, UniProt P48730). Kind of data set: Inhibition of CK1delta (unknown origin) by KINOMEScan assay.
For data set [7], the target named is T2, Mitogen-activated protein kinase 9. Kind of data set: Inhibition of JNK2 (unknown origin) by time-resolved fluorescence assay.
Data set [8] addresses T1, Mitogen-activated protein kinase 8. The experiment in a line: Inhibition of JNK1 (unknown origin) by time-resolved fluorescence assay.
The target of data set [9] is T3, Mitogen-activated protein kinase 10 (Homo sapiens, UniProt P53779). The experiment in a line: Inhibition of JNK3 (unknown origin) by time-resolved fluorescence assay.
The target of data set [10] is Mitogen-activated protein kinase 10 (Rattus norvegicus, UniProt P49187). The experiment in a line: Inhibition of JNK3-mediated c-jun phosphorylation in rat INS1 cells. Format: cell-based.
Data set [11] in a line: Oral bioavailability in rat. Format: ADME, organism-based. To be noted: in vivo.
The species entered for data set [12] is Rattus norvegicus. Kind of data set: Ratio of drug level brain to plasma in rat. The class given is ADME, organism-based.
In data set [13] the target is T3, Mitogen-activated protein kinase 10. The experiment in a line: Inhibition of JNK3-mediated c-jun phosphorylation in human A375 cells after 1 hr incubation. The class given is cell-based, A-375.
The target of the next data set is MAP kinase p38 (Homo sapiens, UniProt O15264+Q15759+Q16539+P53778). Kind of data set: Inhibition of p38 (unknown origin). Format: protein assay.
For data set [14], the target named is T2, Mitogen-activated protein kinase 9. The experiment in a line: Inhibition of JNK2 (unknown origin) by JIP-FP displacement assay.
For data set [15], the target named is Leucine-rich repeat serine/threonine-protein kinase 2 (Homo sapiens, UniProt Q5S007, G2019S). The experiment in a line: Inhibition of LRRK2 G2019S mutant (unknown origin).
The target of data set [16] is T1, Mitogen-activated protein kinase 8. Kind of data set: Inhibition of JNK1 (unknown origin) by JIP-FP displacement assay.
For data set [17], the target named is T3, Mitogen-activated protein kinase 10. The experiment in a line: Inhibition of JNK3 (unknown origin) by JIP-FP displacement assay.
Data set [18] in a line: Half life in rat at 1 mg/kg, iv and 2 mg/kg, po. The class given is ADME, organism-based. To be noted: in vivo.
Data set [19] can be described thus: Oral bioavailability in rat at 2 mg/kg. The class given is ADME, organism-based. To be noted: in vivo.
A short description of data set [20]: Clearance in rat at 1 mg/kg, iv and 2 mg/kg, po. The class given is ADME, organism-based. Conditions: in vivo.
In another data set the target is Cytochrome P450 2C9 (Homo sapiens, UniProt P11712). Kind of data set: Inhibition of CYP2C9 (unknown origin). Format: ADME.
The target in data set [21] is Mast/stem cell growth factor receptor Kit (Homo sapiens, UniProt P10721, V559D). Kind of data set: Inhibition of KIT V559D (unknown origin).
For a further data set, the target named is Cytochrome P450 2C19 (Homo sapiens, UniProt P33261). Kind of data set: Inhibition of CYP2C19 (unknown origin). The class given is ADME.
In the next data set the target is Cytochrome P450 2E1 (Homo sapiens, UniProt P05181). The experiment in a line: Inhibition of CYP2E1 (unknown origin). Format: ADME.
The target of a further data set is Cytochrome P450 2D6 (Homo sapiens, UniProt P10635). The experiment in a line: Inhibition of CYP2D6 (unknown origin). Format: ADME.
Data set [22] is filed under the species Rattus norvegicus. The experiment in a line: Neuroprotective effect against D-amphetamine-induced circling in rats assessed as reduction in behavioral deficits. The class given is functional.
The target of data set [23] is Platelet-derived growth factor receptor beta (Homo sapiens, UniProt P09619). Kind of data set: Inhibition of PDGFRbeta (unknown origin).
The next data set addresses Cytochrome P450 2B6 (Homo sapiens, UniProt P20813). Kind of data set: Inhibition of CYP2B6 (unknown origin). Format: ADME.
Data set [24] is described as follows: Neuroprotective effect against MPP+-induced cell death in primary cultures of mouse mesencephalic dopaminergic neurons […] single dose after 8 hrs. Format: functional.
For another data set, the target named is Cytochrome P450 1A2 (Homo sapiens, UniProt P05177). Kind of data set: Inhibition of CYP1A2 (unknown origin). The class given is ADME.
The test system of data set [25] is Rattus norvegicus. Kind of data set: Protective activity in rat model of myocardial ischemia-reperfusion injury assessed as reduction in infarct volume at 5 mg/kg. Format: functional.
Another data set deals with Cytochrome P450 2C8 (Homo sapiens, UniProt P10632). The experiment in a line: Inhibition of CYP2C8 (unknown origin). Format: ADME.
Another data set deals with Cytochrome P450 2A6 (Homo sapiens, UniProt P11509). The experiment in a line: Inhibition of CYP2A6 (unknown origin). Format: ADME.
The next data set addresses Cytochrome P450 3A4 (Homo sapiens, UniProt P08684). The experiment in a line: Inhibition of CYP3A4 (unknown origin). The class given is ADME.
Data set [26] addresses Non-receptor tyrosine-protein kinase TYK2 (Homo sapiens, UniProt P29597). The experiment in a line: Inhibition of TYK2 (unknown origin).
Data set [27] deals with T1, Mitogen-activated protein kinase 8. The experiment in a line: Inhibition of JNK1 (unknown origin) after 1 hr incubation.
The target in data set [28] is T3, Mitogen-activated protein kinase 10. Kind of data set: Inhibition of JNK3-mediated c-jun phosphorylation in human HeLa cells after 1 hr incubation. Format: cell-based.

Sequence of Mitogen-activated protein kinase 10 (Rattus norvegicus, UniProt P49187) (P49187 whole entry): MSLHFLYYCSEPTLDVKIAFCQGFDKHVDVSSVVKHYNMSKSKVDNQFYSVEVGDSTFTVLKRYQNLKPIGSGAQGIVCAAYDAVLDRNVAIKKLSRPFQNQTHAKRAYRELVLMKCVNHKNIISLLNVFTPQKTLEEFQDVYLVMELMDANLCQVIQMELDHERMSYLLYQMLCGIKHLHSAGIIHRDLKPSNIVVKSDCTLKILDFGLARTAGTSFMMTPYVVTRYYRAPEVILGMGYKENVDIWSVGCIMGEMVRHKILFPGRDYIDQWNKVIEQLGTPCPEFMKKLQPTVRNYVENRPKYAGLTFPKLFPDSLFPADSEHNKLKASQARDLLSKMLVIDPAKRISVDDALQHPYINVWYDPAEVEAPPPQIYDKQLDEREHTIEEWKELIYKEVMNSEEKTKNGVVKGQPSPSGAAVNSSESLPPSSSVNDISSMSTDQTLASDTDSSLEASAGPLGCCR
T3 sequence (P53779 whole entry): as the sequence (P49187 whole entry) above, with H27Q, S32Y, V33I, V34A counted along it
Sequence of Casein kinase I isoform delta (P48730 whole entry, canonical isoform): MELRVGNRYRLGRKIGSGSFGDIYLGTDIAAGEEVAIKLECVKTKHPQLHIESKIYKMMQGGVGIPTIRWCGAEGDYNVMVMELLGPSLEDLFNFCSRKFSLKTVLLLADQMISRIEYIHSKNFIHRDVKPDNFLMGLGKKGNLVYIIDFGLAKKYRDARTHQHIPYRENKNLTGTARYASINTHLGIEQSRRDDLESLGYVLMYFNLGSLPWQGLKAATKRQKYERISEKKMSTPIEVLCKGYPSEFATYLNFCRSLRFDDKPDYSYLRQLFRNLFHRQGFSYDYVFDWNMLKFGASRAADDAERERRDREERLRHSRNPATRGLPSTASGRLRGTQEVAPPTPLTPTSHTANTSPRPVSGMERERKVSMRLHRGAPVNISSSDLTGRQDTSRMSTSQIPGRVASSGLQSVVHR
T2 sequence (P45984 whole entry, canonical isoform): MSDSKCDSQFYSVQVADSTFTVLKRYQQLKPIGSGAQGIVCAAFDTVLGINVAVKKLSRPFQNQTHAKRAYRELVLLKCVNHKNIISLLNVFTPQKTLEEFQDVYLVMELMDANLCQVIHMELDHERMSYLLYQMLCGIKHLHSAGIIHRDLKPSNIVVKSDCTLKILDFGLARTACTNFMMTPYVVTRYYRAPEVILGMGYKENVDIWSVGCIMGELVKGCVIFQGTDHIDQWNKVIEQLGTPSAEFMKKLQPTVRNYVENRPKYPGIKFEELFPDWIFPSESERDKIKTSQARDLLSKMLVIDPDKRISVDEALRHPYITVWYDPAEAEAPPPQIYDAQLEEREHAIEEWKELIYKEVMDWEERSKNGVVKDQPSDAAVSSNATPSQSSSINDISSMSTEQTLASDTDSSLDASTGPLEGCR
Sequence of Mast/stem cell growth factor receptor Kit (Homo sapiens, UniProt P10721) (P10721 whole entry): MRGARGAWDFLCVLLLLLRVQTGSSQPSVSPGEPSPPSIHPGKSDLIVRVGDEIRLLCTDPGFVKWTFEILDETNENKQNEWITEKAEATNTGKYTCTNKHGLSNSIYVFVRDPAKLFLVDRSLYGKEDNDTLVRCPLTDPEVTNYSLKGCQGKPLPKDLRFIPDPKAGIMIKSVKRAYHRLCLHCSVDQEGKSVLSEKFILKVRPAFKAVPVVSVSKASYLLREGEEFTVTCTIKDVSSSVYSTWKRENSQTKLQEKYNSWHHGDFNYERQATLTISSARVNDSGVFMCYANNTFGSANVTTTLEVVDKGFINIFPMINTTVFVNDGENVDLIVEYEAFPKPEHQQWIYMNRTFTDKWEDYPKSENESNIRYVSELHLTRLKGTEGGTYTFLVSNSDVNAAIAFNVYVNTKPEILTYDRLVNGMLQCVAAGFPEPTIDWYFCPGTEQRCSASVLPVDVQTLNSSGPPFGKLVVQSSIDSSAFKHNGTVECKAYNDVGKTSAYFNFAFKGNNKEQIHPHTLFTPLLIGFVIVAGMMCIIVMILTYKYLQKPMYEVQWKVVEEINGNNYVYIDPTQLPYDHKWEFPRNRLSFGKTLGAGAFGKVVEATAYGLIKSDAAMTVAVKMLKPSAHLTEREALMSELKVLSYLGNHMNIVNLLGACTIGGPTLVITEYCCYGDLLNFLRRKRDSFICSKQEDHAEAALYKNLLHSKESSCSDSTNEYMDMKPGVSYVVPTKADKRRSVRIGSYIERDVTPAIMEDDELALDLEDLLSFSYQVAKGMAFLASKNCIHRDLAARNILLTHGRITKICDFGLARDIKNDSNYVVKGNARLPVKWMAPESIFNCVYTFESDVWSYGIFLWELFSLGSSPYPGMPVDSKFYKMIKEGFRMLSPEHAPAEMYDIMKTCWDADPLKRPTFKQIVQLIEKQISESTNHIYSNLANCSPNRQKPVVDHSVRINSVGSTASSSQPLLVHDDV
Sequence of MAP kinase-interacting serine/threonine-protein kinase 2 (Q9HBH9 whole entry, canonical isoform): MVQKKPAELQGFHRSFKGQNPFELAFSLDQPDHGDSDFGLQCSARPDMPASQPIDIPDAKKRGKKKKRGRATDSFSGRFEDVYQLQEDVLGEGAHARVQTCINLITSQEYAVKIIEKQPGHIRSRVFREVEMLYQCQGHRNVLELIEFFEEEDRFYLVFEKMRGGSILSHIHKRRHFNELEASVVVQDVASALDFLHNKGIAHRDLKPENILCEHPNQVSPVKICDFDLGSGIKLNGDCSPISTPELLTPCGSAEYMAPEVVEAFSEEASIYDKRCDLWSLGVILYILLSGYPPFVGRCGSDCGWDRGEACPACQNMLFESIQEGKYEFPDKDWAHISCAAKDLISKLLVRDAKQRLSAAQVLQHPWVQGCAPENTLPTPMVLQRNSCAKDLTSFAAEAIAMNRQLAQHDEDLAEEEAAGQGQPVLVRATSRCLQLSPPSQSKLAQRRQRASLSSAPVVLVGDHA
T1 sequence (P45983 whole entry): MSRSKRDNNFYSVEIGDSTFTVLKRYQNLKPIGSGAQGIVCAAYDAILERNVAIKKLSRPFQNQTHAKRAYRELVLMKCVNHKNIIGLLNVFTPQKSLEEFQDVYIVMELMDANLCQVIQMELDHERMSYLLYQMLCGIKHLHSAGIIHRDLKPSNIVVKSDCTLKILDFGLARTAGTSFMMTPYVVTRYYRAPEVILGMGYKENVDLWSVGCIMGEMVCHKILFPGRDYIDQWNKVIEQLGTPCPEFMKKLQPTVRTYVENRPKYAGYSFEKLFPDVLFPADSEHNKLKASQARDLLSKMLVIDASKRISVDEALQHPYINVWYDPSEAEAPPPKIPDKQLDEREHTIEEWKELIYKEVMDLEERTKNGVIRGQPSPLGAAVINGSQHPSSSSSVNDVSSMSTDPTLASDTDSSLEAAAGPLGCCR
Sequence of Phosphatidylinositol 4,5-bisphosphate 3-kinase catalytic subunit gamma isoform (P48736 whole entry, canonical isoform): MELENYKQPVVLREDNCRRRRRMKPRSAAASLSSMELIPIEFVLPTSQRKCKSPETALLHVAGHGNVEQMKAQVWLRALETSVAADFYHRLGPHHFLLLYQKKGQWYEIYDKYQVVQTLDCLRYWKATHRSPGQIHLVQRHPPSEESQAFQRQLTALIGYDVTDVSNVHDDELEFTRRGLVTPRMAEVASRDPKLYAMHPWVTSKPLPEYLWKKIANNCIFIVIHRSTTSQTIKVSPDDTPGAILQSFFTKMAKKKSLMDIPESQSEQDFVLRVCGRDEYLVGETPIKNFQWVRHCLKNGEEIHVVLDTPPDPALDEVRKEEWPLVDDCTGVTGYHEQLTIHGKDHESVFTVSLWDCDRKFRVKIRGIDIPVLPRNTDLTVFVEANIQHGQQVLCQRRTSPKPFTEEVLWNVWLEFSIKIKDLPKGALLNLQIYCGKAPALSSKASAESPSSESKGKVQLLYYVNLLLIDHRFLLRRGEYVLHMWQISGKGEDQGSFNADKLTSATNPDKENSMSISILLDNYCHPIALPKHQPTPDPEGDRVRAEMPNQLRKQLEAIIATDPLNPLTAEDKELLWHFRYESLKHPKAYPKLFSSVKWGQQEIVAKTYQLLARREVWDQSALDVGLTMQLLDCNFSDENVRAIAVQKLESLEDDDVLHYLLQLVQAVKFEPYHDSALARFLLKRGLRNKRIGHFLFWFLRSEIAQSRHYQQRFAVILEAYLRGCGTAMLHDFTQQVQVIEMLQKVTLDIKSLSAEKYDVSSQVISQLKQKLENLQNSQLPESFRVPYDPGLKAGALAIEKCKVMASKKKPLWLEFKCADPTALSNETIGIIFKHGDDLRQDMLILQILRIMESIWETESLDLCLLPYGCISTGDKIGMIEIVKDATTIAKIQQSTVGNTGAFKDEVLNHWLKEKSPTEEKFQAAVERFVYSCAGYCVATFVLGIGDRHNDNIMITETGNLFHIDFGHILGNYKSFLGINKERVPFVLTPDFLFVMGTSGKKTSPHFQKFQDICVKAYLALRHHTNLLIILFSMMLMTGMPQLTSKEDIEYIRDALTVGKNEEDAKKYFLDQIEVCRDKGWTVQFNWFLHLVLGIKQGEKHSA
Sequence of Cytochrome P450 2C9 (P11712 whole entry): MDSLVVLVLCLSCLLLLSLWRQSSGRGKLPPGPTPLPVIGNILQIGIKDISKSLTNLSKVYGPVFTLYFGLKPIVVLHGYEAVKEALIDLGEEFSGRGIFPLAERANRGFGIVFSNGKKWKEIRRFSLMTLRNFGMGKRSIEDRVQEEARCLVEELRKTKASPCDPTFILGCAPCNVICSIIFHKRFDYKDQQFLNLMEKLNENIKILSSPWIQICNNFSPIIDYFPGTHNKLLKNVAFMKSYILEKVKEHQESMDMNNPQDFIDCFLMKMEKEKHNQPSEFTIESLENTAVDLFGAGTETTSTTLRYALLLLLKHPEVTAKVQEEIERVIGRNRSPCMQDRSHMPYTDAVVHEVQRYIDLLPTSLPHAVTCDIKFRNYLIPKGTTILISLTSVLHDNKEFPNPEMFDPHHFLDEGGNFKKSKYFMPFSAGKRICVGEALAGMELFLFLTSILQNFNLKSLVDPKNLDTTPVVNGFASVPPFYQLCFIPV

Consider `O=C(NCCN1CCOCC1)c1ccnc(-n2ncc3cc(Nc4ccccc4Cl)ccc32)c1`, for which, in data set [1], the Kd is less than 1 µM.

As for `O=C(O/N=C1/c2ccccc2-c2nc3ccccc3nc21)c1ccco1`, the Kd in data set [2] amounted to 1200 nM; in [3], 430 nM; in data set [4], 240 nM; in [5], 290 nM; in data set [6] it was 560 nM.

With `CN(C)c1ccc(-c2cnc3[nH]cc(-c4cn[nH]c4)c3c2)cc1`, the IC50 in [7] was 59 nM; in [8], 101 nM; in data set [9], 32 nM.

As for `COc1cc(N2CCOCC2)ccc1Nc1ncc(Cl)c(Nc2ccccc2C(N)=O)n1`, the IC50 came to 3 nM in data set [10], 3 nM in data set [8] and 0.8 nM in data set [9]. The bioavailability in data set [11] amounted to 30%. In addition, the BPR in the data set listed under Rattus norvegicus [12] was determined as 17%.

Molecule `CN(C)C/C=C/C(=O)Nc1ccc(C(=O)Nc2cccc(Nc3nccc(-c4cccnc4)n3)c2)cc1` had an IC50 in data set [13] of 2400 nM. This lies in the single-digit micromolar range.

For the molecule `Cn1cc(-c2c[nH]c3ncc([C@H]4CC[C@H](N5CCCOCC5)CC4)cc23)cn1`, the IC50 in data set [7] is 339 nM; in data set [8], 166 nM.

For the molecule `COc1cc(NC(=O)c2cccc(-n3cc(NC(=O)Nc4ccccc4)cn3)c2)cc(OC)c1OC`, the IC50 in data set [10] turned out to be 1200 nM; on MAP kinase p38, 3.7 µM.

For the molecule `COc1ccc(CC(=O)Nc2cc3cc(-c4cnn(C)c4)ccc3cn2)cc1`, the IC50 in data set [8] turned out to be 0.8 nM.

Take `Cn1cc(-c2c[nH]c3ncc([C@H]4CC[C@H](N5CCOCC5)CC4)cc23)cn1`: the results for the IC50 in [7], in data set [8] and in [9] were 123 nM, 74 nM and 85 nM, respectively.

Take `COc1ccc2c(c1)OCC(C(=O)NC(=O)N(CC(=O)NCCCCCCNC(=O)c1ccc(-c3n[nH]c4ccccc34)cc1)CC(C)C)O2` (stereo not given): the IC50 came out at 2800 nM in [10]; 336 nM in data set [14]; 99 nM in data set [15]; 109 nM in [16]; 12 nM in [17].

As for `Fc1cc(-c2cc[nH]/c(=N/c3ccc(-n4cnc(N5CCOCC5)n4)cc3)n2)cc(N2CCOCC2)c1`, the IC50 in data set [10] was 54 nM; in data set [7], 99 nM; against MAP kinase p38, more than 20 µM.

For `O=C(NCCN1CCN(C2CCC2)CC1)c1cccc(-n2ncc3cc(Nc4ccccc4Cl)ccc32)c1`, the half-life in data set [18] was 3.3 min. In addition, the values for the IC50 in data set [8] and in data set [9] were 970 nM and 40 nM, respectively. The molecule further came in with a bioavailability in data set [19] of 27%. The clearance in [20] was 25 mL/min/kg.

`NC(=O)c1ccccc1Nc1nc(Nc2ccc(N3CCOCC3)cc2)ncc1Cl`: the IC50 came to 1 nM in data set [8] and 0.3 nM in data set [9].

In the case of `COc1ccc(C(=O)O/N=C2/c3ccccc3-c3nc4ccccc4nc32)cc1OC`, the Kd in [2] was found to be 10000 nM; in [3], 12000 nM; in data set [4] it was 270 nM; in [5] it was 280 nM; in data set [6], 5700 nM.

Turning to `Cc1ccc(-c2ncn(-c3ccc(Nc4nccc(-c5cccc(N6CCOCC6)c5)n4)cc3)n2)cn1`, the IC50 is more than 50 µM against Cytochrome P450 2C9; 216 nM in [10]; more than 50 µM against Cytochrome P450 2C19; more than 50 µM at Cytochrome P450 2E1; more than 50 µM against Cytochrome P450 2D6; 283 nM in data set [7]. Moreover, the IC50 on Cytochrome P450 2B6 was more than 50 µM; in data set [8] it was 67 nM; against Cytochrome P450 1A2 it was more than 50 µM; on Cytochrome P450 2C8 it was more than 50 µM; against Cytochrome P450 2A6, more than 50 µM; in data set [9], 159 nM. For the same molecule, the results for the IC50 on Cytochrome P450 3A4 and on MAP kinase p38 were more than 50 µM and more than 20 µM, respectively. Besides, the Kd was less than 1000 nM in data set [21], more than 20 µM in [1], less than 1000 nM in [23] and less than 1000 nM in data set [26]. Besides, in the data set filed under Rattus norvegicus [22], the “inhibition (INH)” value is reported as 90%. This molecule also showed an Activity in data set [24] of more than 90%. In addition, the inhibition in vivo at 5 mg/kg in the data set with Rattus norvegicus [25] stood at 34%.

For `COc1cc(NC(=O)c2cccc(-n3cc(NC(=O)Nc4cccc(C)c4)cn3)c2)cc(OC)c1OC`, the results for the IC50 (in data set [10]; in data set [8]; against MAP kinase p38) were 1300 nM, 17 nM and more than 20 µM, respectively. This molecule also registered a Kd in data set [1] of more than 20 µM.

Regarding `NC(=O)c1ccccc1Nc1nc(Nc2ccc(N3CCCC3=O)cc2)ncc1Cl`, the IC50 in data set [8] came to 0.24 nM. This lies in the sub-nanomolar range.

For the molecule `CN(C)C/C=C/C(=O)Nc1cccc(C(=O)Nc2ccc(Nc3nccc(-c4c(-c5ccccc5)nn5ccccc45)n3)cc2)c1`, the figures for the IC50 in data set [13], in [27] and in data set [28] were 9 nM, 1.3 nM and 48 nM, respectively.

In the case of `CS(=O)(=O)Nc1ccc(-c2ccnc(Nc3ccc(-n4ccnn4)cc3)n2)cc1`, the IC50 is 210 nM in data set [10] and more than 20 µM at MAP kinase p38.

As to `Cn1cc(-c2ccc3cnc(Nc4ccc(-n5cnc(N6CCOCC6)n5)cc4)nc3c2)cn1`, the IC50 is 310 nM in data set [10] and 90 nM in [7].

On to `O/N=C1/c2ccccc2-c2nc3ccccc3nc21`, for which the Kd in data set [2] came to 920 nM; in [3], 470 nM; in [6] it was 380 nM.

Regarding `CN(C)C/C=C/C(=O)Nc1cccc(C(=O)Nc2ccc(Nc3nccc(-c4cccnc4)n3)cc2)c1`, the IC50 in data set [27] was 1.5 nM.
